{"source": "patent US6585954B1", "about": "“Method for searching steroid sulfatase inhibitors” (Kyowa Hakko Kogyo Co., Ltd., priority 1998, dated 2003)", "key": {"[1]": {"tested_on": "tumor of transformed cell line carrying the introduced human steroid sulfatase gene (STS)", "assay": "Effect of a steroid sulfatase inhibitor on estrone-3-sulfate-dependent tumor growth in nude mice (Example 5)", "assay_type": "in vivo, BALB/c-nu/nu mice", "details": "0.1 mg/kg estrone-3-sulfate alone, subcutaneously for 22 days; by the 38th day", "method": "The volume of a tumor can be calculated from the shorter diameter and the longer diameter of the tumor measured with slide calipers according to the following approximation formula.\nTumor volume=(longer diameter)×(shorter diameter)^2÷2\nAnimals in which the tumor growth was confirmed after administration of estrone-3-sulfate are selected, and a test compound is administered thereto. Then, the tumor volume is measured to estimate the steroid sulfatase-inhibiting activity of the test compound. The test compound may be administered by any of intravenous, subcutaneous, intraperitoneal and oral routes. The steroid sulfatase-inhibiting activity of the compound can be estimated by measuring the tumor volume at intervals of 3-4 days after the administration, and then comparing the tumor growth between the group to which only estrone-3-sulfate was administered and the group to which estrone-3-sulfate and the test compound were administered.\n(§1) The cells were suspended at a concentration of 2×10^8 cells/ml and the suspension was mixed with an equal volume of matrigel-basement membrane (Becton & Dickinson). The resulting mixture was subcutaneously transplanted into 7- to 8-weeks-old female BALB/c-nu/nu mice, (nude mice, each group consisting of 5 mice) in an amount of 0.1 ml (1×10^7 cells). […]"}, "[2]": {"tested_on": "transformed cell line carrying the introduced human steroid sulfatase gene (STS)", "assay": "Tumor formation after transplantation of cells carrying an introduced steroid sulfatase gene (Example 4)", "assay_type": "in vivo, BALB/c-nu/nu mice", "details": "0.1 mg/kg estrone-3-sulfate subcutaneously every day, after tumor growth stopped following estrogen preparation", "source_text": "First, cells carrying the introduced steroid sulfatase gene are transplanted into an animal such as a mouse for fixation to form a tumor. That is, tumor cells carrying the introduced steroid sulfatase gene are transplanted subcutaneously into an immunodeficient mouse, for example, a BALB/c-nu/nu (a nude mouse) or an SCID mouse in an amount of 1-5×10^6 cells to form a tumor. At the time of transplantation, a crude extract of basement membrane containing adhesion factor (e.g., matrigel-basement membrane, Becton & Dickinson) may be added in order to improve the fixation rate [Br. J. Cancer, 67, 953 (1993)]. In the case of estrogen-dependent breast cancer, the fixation rate is improved and the tumor growth after the fixation is promoted by administering an estrogen compound.\nas §1, with “cells). On the day of transplantation and 2 weeks later, an estrogen preparation (EP depo, Teikoku Zoki) was intramuscularly administered.” for “cells).”"}}, "data": [{"smiles": "C[C@]12CC[C@@H]3c4ccc(OS(=O)(=O)O)cc4CC[C@H]3[C@@H]1CCC2=O", "note": "[estrone-3-sulfate]", "values": [{"measurement": "tumor volume relative to the initial volume", "setting": "[1]", "result": 1.4, "unit": "times the initial volume"}, {"measurement": "tumor growth after administration", "setting": "[2]", "result": "the tumor grew in all mice and there was no reduction of tumor"}]}]}
